Assay: xn = mol fraction of the nth substance listed
Conditions: for surface tension liquid-gas: Pendant drop shape; for mass density: 101 kPa, Liquid

CCCOC(C)=O [propyl ethanoate] + Cc1ccc(C)cc1
Conditions	mass density [kg/m3]	surface tension liquid-gas [mN/m]
298.15 K, x1 = 0.1	859.6	27.56
298.15 K, x1 = 0.1995	862.22	27.04
298.15 K, x1 = 0.2981	864.8	26.54
298.15 K, x1 = 0.3986	867.38	26.05
298.15 K, x1 = 0.4993	869.95	25.61
298.15 K, x1 = 0.6002	872.51	25.23
298.15 K, x1 = 0.6991	875	24.89
298.15 K, x1 = 0.7993	877.52	24.56
298.15 K, x1 = 0.8999	880.05	24.23
298.15 K, x1 = 1	882.54	23.91
303.15 K, x1 = 0.0994	855.13	26.98
303.15 K, x1 = 0.1992	857.64	26.48
303.15 K, x1 = 0.2992	860.13	25.99
303.15 K, x1 = 0.3991	862.58	25.52
303.15 K, x1 = 0.5009	865.05	25.1
303.15 K, x1 = 0.5998	867.44	24.76
303.15 K, x1 = 0.6999	869.84	24.43
303.15 K, x1 = 0.8009	872.26	24.1
303.15 K, x1 = 0.8997	874.63	23.78
303.15 K, x1 = 1	876.99	23.46
308.15 K, x1 = 0.1001	850.7	26.61
308.15 K, x1 = 0.1999	853.09	26.09
308.15 K, x1 = 0.2992	855.43	25.57
308.15 K, x1 = 0.4001	857.77	25.06
308.15 K, x1 = 0.4996	860.06	24.62
308.15 K, x1 = 0.6	862.35	24.23
308.15 K, x1 = 0.6996	864.61	23.87
308.15 K, x1 = 0.8003	866.88	23.51
308.15 K, x1 = 0.9002	869.14	23.15
308.15 K, x1 = 1	871.35	22.79

CCCOC(C)=O [propyl ethanoate] + Cc1cccc(C)c1
x1 = 1
Conditions	mass density [kg/m3]	surface tension liquid-gas [mN/m]
298.15 K	882.54	23.91
303.15 K	876.99	23.46
308.15 K	871.35	22.79

CCCOC(C)=O [propyl ethanoate] + Cc1ccccc1C
Conditions	mass density [kg/m3]	surface tension liquid-gas [mN/m]
298.15 K, x1 = 0.0998	876.04	28.94
298.15 K, x1 = 0.1995	876.96	28.14
298.15 K, x1 = 0.2996	877.83	27.47
298.15 K, x1 = 0.4002	878.67	26.85
298.15 K, x1 = 0.5001	879.45	26.27
298.15 K, x1 = 0.6004	880.18	25.71
298.15 K, x1 = 0.7002	880.85	25.18
298.15 K, x1 = 0.7999	881.46	24.69
298.15 K, x1 = 0.9	882.03	24.25
298.15 K, x1 = 1	882.54	23.91
303.15 K, x1 = 0.0999	–	28.41
303.15 K, x1 = 0.1	871.68	–
303.15 K, x1 = 0.1997	872.48	27.6
303.15 K, x1 = 0.2992	873.22	26.92
303.15 K, x1 = 0.3998	873.93	26.3
303.15 K, x1 = 0.4993	874.57	25.74
303.15 K, x1 = 0.6002	875.17	25.2
303.15 K, x1 = 0.6994	875.7	24.7
303.15 K, x1 = 0.8002	876.19	24.24
303.15 K, x1 = 0.902	876.63	23.81
303.15 K, x1 = 1	876.99	23.46
308.15 K, x1 = 0.0999	867.33	27.8
308.15 K, x1 = 0.1999	867.99	27.05
308.15 K, x1 = 0.3001	868.59	26.35
308.15 K, x1 = 0.3989	869.15	25.73
308.15 K, x1 = 0.5002	869.66	25.14
308.15 K, x1 = 0.6008	870.11	24.6
308.15 K, x1 = 0.6998	870.5	24.1
308.15 K, x1 = 0.8007	870.84	23.63
308.15 K, x1 = 0.9	871.12	23.2
308.15 K, x1 = 1	871.35	22.79

From the NIST ThermoML archive (doi:10.1021/je060485s)
